Data published in patent US7226924B2, “Substituted 3,4-dihydro-pyrimido[1,2a]pyrimidines and 3,4-dihydro-pyrazino[1,2a]pyrimidines, and methods for their preparation and use” (priority 2000, dated 2007).

Key:
[1] = biological target: μ-opiate receptor (Homo sapiens, UniProt P35372); assay: μ-opiate receptor binding; conditions: read-out: Ki Value of the μ-opiate Receptor Bond
Description: (§1) Compounds according to the invention were investigated with respect to their pharmacological properties using methods described by J. P. Devlin in “High throughput screening—the discovery of bioactive substances,” Marcel Dekker, New York, 1997, pages 275 to 453.

[2] = tested on: NMDA/MK801-binding site; assay: NMDA/MK801-binding site inhibition; design: dose or concentration left out as unconfirmed
Description: as §1

μ-opiate receptor, sequence (P35372 whole entry, species assumed): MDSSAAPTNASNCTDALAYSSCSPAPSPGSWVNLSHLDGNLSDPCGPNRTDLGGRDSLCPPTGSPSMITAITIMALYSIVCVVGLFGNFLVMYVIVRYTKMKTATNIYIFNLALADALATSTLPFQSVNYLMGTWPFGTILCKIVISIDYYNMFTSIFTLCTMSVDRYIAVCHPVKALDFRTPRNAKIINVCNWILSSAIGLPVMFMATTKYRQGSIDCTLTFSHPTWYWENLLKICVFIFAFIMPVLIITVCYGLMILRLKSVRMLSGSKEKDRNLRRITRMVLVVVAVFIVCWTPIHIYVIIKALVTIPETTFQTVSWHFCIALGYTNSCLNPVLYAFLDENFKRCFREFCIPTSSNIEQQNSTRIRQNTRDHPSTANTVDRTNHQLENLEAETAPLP

Row | Structure (SMILES) | Ki [1] [µM] | % inhibition of NMDA/MK801-binding site [2] [%]
1 | NC(=O)C1=NC(Cl)=C(N)N2C1=NC(c1ccccn1)CC2Sc1ccccc1 (centres unmarked) [Example 51, 6-Amino-7-chlor-4-phenylsulphanyl-2-pyridin-2--yl-3,4-dihydro-2H-pyrazino[1,2a]pyrimidin-9--carboxylic acid amide] | 1.4 | 40
2 | N#CC1=NC(c2ccccc2)=CN2C1=NC(c1ccccn1)CC2Sc1ccccc1 (centres unmarked) [Example 52, 7-phenyl-4-phenylsulphanyl-2-pyridin-2-yl-3,4--dihydro-2H-pyrazino[1,2a]pyrimidine-9--carbonitrile] | 1.4 | 47
3 | BrC1=CN2C(=NC(c3ccccn3)CC2Sc2ccccc2)N=C1 (centres unmarked) [Example 53, 7-bromo-4-phenylsulphanyl-2-pyridin-2-yl-3,4--dihydro-2H-pyrimido[1,2a]pyrimidine] | 2.5 | 44
4 | OC1=CC(O)=NC2=NC(c3ccccn3)C3C4C=CC(C4)C3N12 (centres unmarked) [Example 61, 5,8-methano-9-pyridin-2-yl-5,8,84,9-tetrahydro--4bH-1,4a,10-triaza-phenanthrene-2,4-diol] | – | 40
5 | BrC1=CN2C(=NC(c3ccccn3)C3CCC=CC32)N=C1 (centres unmarked) [Example 62, 3-bromo-9-pyridin-2-yl-7,8,84,9-tetrahydro--4bH-1,44,10-triaza-phenanthrene] | – | 40
